Source: patent US20260325533A1, “CDK INHIBITOR COMPOUNDS” (ALEKSIA THERAPEUTICS, INC., priority 2023, published 2026)
Like-named read-outs stand apart in the source and are kept apart here.

Columns and labels:
Format in all cases: biochemical
CDK2/CCNE1 = CDK2/CCNE1 (Homo sapiens, UniProt P24941); assay: CDK2 homogeneous time-resolved fluorescence (HTRF) kinase assay; details: CDK2/CCNE
Outline: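 An HTRF format measures CDK2/CCNE1 (3 nM) phosphorylating a 4E-BP1 Thr37/46 peptide at high (1 mM) ATP. Reactions run one hour at 23 °C, then EDTA-quenched and probed with Eu-labelled phospho-specific antibody.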

CDK1/CCNB1 = CDK1/CCNB1 (Homo sapiens, UniProt P06493); assay: CDK1 homogeneous time-resolved fluorescence (HTRF) kinase assay; details: CDK1/CCNB
Sequence of CDK1/CCNB1 (P06493 whole entry): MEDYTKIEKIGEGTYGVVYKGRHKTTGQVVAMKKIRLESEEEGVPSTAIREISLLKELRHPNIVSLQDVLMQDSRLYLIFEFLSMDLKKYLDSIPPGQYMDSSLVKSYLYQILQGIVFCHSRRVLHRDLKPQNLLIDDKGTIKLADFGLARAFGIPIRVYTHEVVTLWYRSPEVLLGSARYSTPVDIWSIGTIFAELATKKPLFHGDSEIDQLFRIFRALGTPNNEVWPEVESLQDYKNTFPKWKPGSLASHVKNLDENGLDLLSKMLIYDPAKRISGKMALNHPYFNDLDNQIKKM
Sequence of CDK1/CCNB1 (P14635 whole entry partner): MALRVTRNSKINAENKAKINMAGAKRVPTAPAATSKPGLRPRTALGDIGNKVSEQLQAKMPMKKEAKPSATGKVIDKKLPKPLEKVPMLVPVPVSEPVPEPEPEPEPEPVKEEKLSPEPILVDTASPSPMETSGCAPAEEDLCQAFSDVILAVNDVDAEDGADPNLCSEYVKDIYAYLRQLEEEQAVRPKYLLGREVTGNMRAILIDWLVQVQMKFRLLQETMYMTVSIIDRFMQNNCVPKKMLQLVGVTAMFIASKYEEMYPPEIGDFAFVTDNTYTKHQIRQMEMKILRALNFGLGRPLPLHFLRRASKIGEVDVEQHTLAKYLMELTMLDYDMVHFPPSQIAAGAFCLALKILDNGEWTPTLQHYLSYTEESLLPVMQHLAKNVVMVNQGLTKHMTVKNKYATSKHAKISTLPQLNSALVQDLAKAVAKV
Outline: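 High-ATP (1 mM) HTRF assay with 0.5 nM CDK1/cyclin B1 and 50 nM ULight-4E-BP1 (Thr37/46) substrate, 60 min at 23 °C after 20-min compound preincubation. IC50 values come from dose-response curves.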

CDK4/CCND3 = CDK4/CCND3 (Homo sapiens, UniProt P11802); assay: CDK4 homogeneous time-resolved fluorescence (HTRF) kinase assay; details: CDK4/CCND
Sequence of CDK4/CCND3 (P11802 whole entry): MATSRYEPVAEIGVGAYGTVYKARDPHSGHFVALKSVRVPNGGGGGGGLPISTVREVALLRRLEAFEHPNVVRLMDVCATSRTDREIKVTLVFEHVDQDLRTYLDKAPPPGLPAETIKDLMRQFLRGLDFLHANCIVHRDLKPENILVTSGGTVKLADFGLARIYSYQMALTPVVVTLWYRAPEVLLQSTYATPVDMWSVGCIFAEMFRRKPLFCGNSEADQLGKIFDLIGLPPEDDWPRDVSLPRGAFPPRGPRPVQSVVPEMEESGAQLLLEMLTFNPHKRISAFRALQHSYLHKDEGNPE
Sequence of CDK4/CCND3 (P30281 whole entry partner): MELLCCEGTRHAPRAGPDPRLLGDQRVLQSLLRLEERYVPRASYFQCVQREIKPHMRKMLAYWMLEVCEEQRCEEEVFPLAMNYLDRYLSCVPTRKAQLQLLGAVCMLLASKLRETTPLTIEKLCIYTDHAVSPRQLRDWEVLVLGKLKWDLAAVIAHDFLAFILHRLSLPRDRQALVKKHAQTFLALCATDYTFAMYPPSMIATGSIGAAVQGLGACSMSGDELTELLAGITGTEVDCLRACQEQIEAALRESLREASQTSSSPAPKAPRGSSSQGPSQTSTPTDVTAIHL
Outline: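 IC50 values were derived from 11-point half-log dilutions, usually starting at 10 μM. Compound was first held for 20 min at 23 °C with 1.5 nM CDK4/CCND3. 1 mM ATP and 50 nM ULight-eIF4E-BP1 (Thr37/46) substrate were then added for 60 min, and the TR-FRET 665 nm signal was measured after EDTA stop and Eu-anti-phospho-4E-BP1 detection.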

CDK6/CCND1 = CDK6/CCND1 (Homo sapiens, UniProt Q00534); assay: CDK6 homogeneous time-resolved fluorescence (HTRF) kinase assay; details: CDK6/CCND
Sequence of CDK6/CCND1 (Q00534 whole entry): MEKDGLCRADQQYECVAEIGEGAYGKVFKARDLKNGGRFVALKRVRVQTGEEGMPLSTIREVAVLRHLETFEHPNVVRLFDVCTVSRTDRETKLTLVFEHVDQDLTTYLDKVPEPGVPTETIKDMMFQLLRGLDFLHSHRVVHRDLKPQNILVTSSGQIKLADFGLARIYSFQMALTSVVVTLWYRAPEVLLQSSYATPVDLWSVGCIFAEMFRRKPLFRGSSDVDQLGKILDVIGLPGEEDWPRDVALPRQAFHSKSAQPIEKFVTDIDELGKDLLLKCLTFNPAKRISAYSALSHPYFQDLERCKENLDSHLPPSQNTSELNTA
Sequence of CDK6/CCND1 (P24385 whole entry partner): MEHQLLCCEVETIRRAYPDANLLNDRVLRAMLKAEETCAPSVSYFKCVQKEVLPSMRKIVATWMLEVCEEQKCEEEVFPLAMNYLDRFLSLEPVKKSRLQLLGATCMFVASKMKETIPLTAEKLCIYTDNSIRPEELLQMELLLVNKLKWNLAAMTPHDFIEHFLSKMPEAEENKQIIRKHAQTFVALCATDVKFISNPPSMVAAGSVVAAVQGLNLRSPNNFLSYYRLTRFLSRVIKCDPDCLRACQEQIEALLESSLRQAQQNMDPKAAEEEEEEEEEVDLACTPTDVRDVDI
Outline: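 Recombinant CDK6/CCND1 (1 nM final) was preincubated with compound for 20 min at 23 °C in HEPES buffer with MgCl2, EGTA, DTT and Tween 20. Kinase reaction then ran 60 min at 23 °C with 1 mM ATP and 50 nM ULight-4E-BP1 (Thr37/46) peptide, and was stopped with EDTA.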

[1] = <25 nM, read-out: CDK2/CCNE IC50 <25 nM
[2] = 25-250 nM marked x, read-out: CDK4/CCND IC50 25-250 nM
[3] = 25-250 nM marked x, read-out: CDK6/CCND IC50 25-250 nM
[4] = 25-250 nM marked x, read-out: CDK1/CCNB IC50 25-250 nM
[5] = <25 nM, read-out: CDK4/CCND IC50 <25 nM
[6] = <25 nM, read-out: CDK6/CCND IC50 <25 nM
[7] = 25-250 nM marked x, read-out: CDK2/CCNE IC50 25-250 nM
[8] = >250 nM marked x, read-out: CDK1/CCNB IC50 >250 nM
[9] = >250 nM marked x, read-out: CDK4/CCND IC50 >250 nM
[10] = >250 nM marked x, read-out: CDK6/CCND IC50 >250 nM

IC50 (CDK2/CCNE1; [1])	IC50 (CDK4/CCND3; [2])	IC50 (CDK2/CCNE1; [7])	IC50 (CDK1/CCNB1; [8])	IC50 (CDK4/CCND3; [9])	IC50 (CDK6/CCND1; [10])	Structure (SMILES)	other results
< 25 nM	25 to 250 nM	–	–	–	–	O=C(ON1C(=O)CCC1=O)c1ccc(Nc2cc3c(C4=CCCCC4)nccc3cn2)cc1 [Ex 113, 2,5-dioxopyrrolidin-1-yl 4-((5-(cyclohex-1-en-1-yl)-2,6-naphthyridin-3-yl)amino)benzoate]	IC50 (CDK1/CCNB1; <25 nM, read-out: CDK1/CCNB IC50 <25 nM): < 25 nM; IC50 (CDK6/CCND1; [3]): 25 to 250 nM
< 25 nM	–	–	–	–	–	Cc1c(-c2nccc3cnc(NC4CCN(S(C)(=O)=O)CC4)cc23)ccc2[nH]ncc12 [Ex 116, 5-(4-methyl-1H-indazol-5-yl)-N-(1-(methylsulfonyl)piperidin-4-yl)-2,6-naphthyridin-3-amine]	IC50 (CDK1/CCNB1; [4]): 25 to 250 nM; IC50 (CDK4/CCND3; [5]): < 25 nM; IC50 (CDK6/CCND1; [6]): < 25 nM
< 25 nM	–	–	–	–	–	Cc1cc2[nH]ncc2cc1-c1nccc2cnc(NC3CCN(S(C)(=O)=O)CC3)cc12 [Ex 117, 5-(6-methyl-1H-indazol-5-yl)-N-(1-(methylsulfonyl)piperidin-4-yl)-2,6-naphthyridin-3-amine]	IC50 (CDK1/CCNB1; [4]): 25 to 250 nM; IC50 (CDK4/CCND3; [5]): < 25 nM; IC50 (CDK6/CCND1; [6]): < 25 nM
–	–	25 to 250 nM	> 250 nM	> 250 nM	> 250 nM	C#Cc1nccc2cnc(Nc3ccc(S(C)(=O)=O)cc3)cc12 [Ex 124, 5-ethynyl-N-(4-(methylsulfonyl)phenyl)-2,6-naphthyridin-3-amine]	–
< 25 nM	–	–	–	–	–	CS(=O)(=O)c1ccc(Nc2cc3c(C4=CCCCC4)nccc3cn2)cc1 [Ex 127, 5-(cyclohex-1-en-1-yl)-N-(4-(methylsulfonyl)phenyl)-2,6-naphthyridin-3-amine]	IC50 (CDK1/CCNB1; [4]): 25 to 250 nM; IC50 (CDK4/CCND3; [5]): < 25 nM; IC50 (CDK6/CCND1; [6]): < 25 nM
–	–	25 to 250 nM	> 250 nM	> 250 nM	> 250 nM	CS(=O)(=O)c1ccc(Nc2cc3c(C#Cc4ccc(C#N)cc4)nccc3cn2)cc1 [Ex 129, 4-((7-((4-(methylsulfonyl)phenyl)amino)-2,6-naphthyridin-1-yl)ethynyl)benzonitrile]	–
< 25 nM	25 to 250 nM	–	–	–	–	CS(=O)(=O)c1ccc(Nc2cc3c(C#CCCO)nccc3cn2)cc1 [Ex 130, 4-(7-((4-(methylsulfonyl)phenyl)amino)-2,6-naphthyridin-1-yl)but-3-yn-1-ol]	IC50 (CDK1/CCNB1; [4]): 25 to 250 nM; IC50 (CDK6/CCND1; [3]): 25 to 250 nM
–	–	25 to 250 nM	> 250 nM	> 250 nM	> 250 nM	C=CS(=O)(=O)c1ccc(Nc2cc3c(-c4ccc(C#N)cc4)nccc3cn2)cc1 [Ex 131, 4-(7-((4-(vinylsulfonyl)phenyl)amino)-2,6-naphthyridin-1-yl)benzonitrile]	–
–	–	25 to 250 nM	> 250 nM	> 250 nM	> 250 nM	C=CS(=O)(=O)c1ccc(Nc2cc3c(-c4cccc(C#N)c4)nccc3cn2)cc1 [Ex 136, 3-(7-((4-(vinylsulfonyl)phenyl)amino)-2,6-naphthyridin-1-yl)benzonitrile]	–
–	–	25 to 250 nM	> 250 nM	> 250 nM	> 250 nM	C=CS(=O)(=O)c1ccc(Nc2cc3c(-c4cccc(COC)c4)nccc3cn2)cc1 [Ex 137, 5-(3-(methoxymethyl)phenyl)-N-(4-(vinylsulfonyl)phenyl)-2,6-naphthyridin-3-amine]	–
< 25 nM	25 to 250 nM	–	> 250 nM	–	–	CS(=O)(=O)c1ccc(Nc2cc3c(C#Cc4ccncc4)nccc3cn2)cc1 [Ex 138, N-(4-(methylsulfonyl)phenyl)-5-(pyridin-4-ylethynyl)-2,6-naphthyridin-3-amine]	IC50 (CDK6/CCND1; [3]): 25 to 250 nM
< 25 nM	25 to 250 nM	–	–	–	–	CS(=O)(=O)c1ccc(Nc2cc3c(C4=NCCS4)nccc3cn2)cc1 [Ex 139, 5-(4,5-dihydrothiazol-2-yl)-N-(4-(methylsulfonyl)phenyl)-2,6-naphthyridin-3-amine]	IC50 (CDK1/CCNB1; [4]): 25 to 250 nM; IC50 (CDK6/CCND1; [3]): 25 to 250 nM
–	–	25 to 250 nM	> 250 nM	> 250 nM	> 250 nM	C=CS(=O)(=O)c1ccc(Nc2cc3c(-c4ccccc4OC(F)(F)F)nccc3cn2)cc1 [Ex 141, 5-(2-(trifluoromethoxy)phenyl)-N-(4-(vinylsulfonyl)phenyl)-2,6-naphthyridin-3-amine]	–
–	–	25 to 250 nM	> 250 nM	> 250 nM	> 250 nM	C=CS(=O)(=O)c1ccc(Nc2cc3c(-c4ccc5ocnc5c4)nccc3cn2)cc1 [Ex 145, 5-(benzo[d]oxazol-5-yl)-N-(4-(vinylsulfonyl)phenyl)-2,6-naphthyridin-3-amine]	–
–	–	–	–	–	–	CS(=O)(=O)c1ccc(Nc2cc3c(C4=CCNCC4)nccc3cn2)cc1 [Ex 146, N-(4-(methylsulfonyl)phenyl)-5-(1,2,3,6-tetrahydropyridin-4-yl)-2,6-naphthyridin-3-amine]	IC50 (CDK2/CCNE1; CDK2/CCNE IC50 25-250 nM, 25-250 nM marked x): 25 to 250 nM; IC50 (CDK1/CCNB1; CDK1/CCNB IC50 >250 nM, >250 nM marked x): > 250 nM; IC50 (CDK4/CCND3; CDK4/CCND IC50 25-250 nM, 25-250 nM marked x): 25 to 250 nM; IC50 (CDK6/CCND1; CDK6/CCND IC50 25-250 nM, 25-250 nM marked x): 25 to 250 nM
< 25 nM	25 to 250 nM	–	> 250 nM	–	–	Cc1c(-c2nccc3cnc(Nc4ccc(S(C)(=O)=O)cc4)cc23)ccc2[nH]ncc12 [Ex 148, 5-(4-methyl-1H-indazol-5-yl)-N-(4-(methylsulfonyl)phenyl)-2,6-naphthyridin-3-amine]	IC50 (CDK6/CCND1; [3]): 25 to 250 nM
< 25 nM	–	–	> 250 nM	> 250 nM	> 250 nM	C=CS(=O)(=O)c1ccc(Nc2cc3c(C#CC)nccc3cn2)cc1 [Ex 149, 5-(prop-1-yn-1-yl)-N-(4-(vinylsulfonyl)phenyl)-2,6-naphthyridin-3-amine]	–
< 25 nM	–	–	> 250 nM	–	–	CS(=O)(=O)c1ccc(Nc2cc3c(C#C[C@H]4CC[C@H](O)CC4)nccc3cn2)cc1 [Ex 150, (1r,4r)-4-((7-((4-(methylsulfonyl)phenyl)amino)-2,6-naphthyridin-1-yl)ethynyl)cyclohexan-1-ol]	IC50 (CDK4/CCND3; [5]): < 25 nM; IC50 (CDK6/CCND1; [3]): 25 to 250 nM
–	–	25 to 250 nM	> 250 nM	> 250 nM	> 250 nM	C=CS(=O)(=O)c1ccc(Nc2cc3c(C#Cc4ccc(C#N)cc4)nccc3cn2)cc1 [Ex 156, 4-((7-((4-(vinylsulfonyl)phenyl)amino)-2,6-naphthyridin-1-yl)ethynyl)benzonitrile]	–
< 25 nM	25 to 250 nM	–	> 250 nM	–	> 250 nM	Cc1c(-c2nccc3cnc(Nc4ccc(S(C)(=O)=O)cc4)cc23)ccc2c1cnn2C [Ex 158, 5-(1,4-dimethyl-1H-indazol-5-yl)-N-(4-(methylsulfonyl)phenyl)-2,6-naphthyridin-3-amine]	–
< 25 nM	–	–	> 250 nM	> 250 nM	> 250 nM	C=CS(=O)(=O)c1ccc(Nc2cc3c(-c4ccc5cc[nH]c5c4)nccc3cn2)cc1 [Ex 162, 5-(1H-indol-6-yl)-N-(4-(vinylsulfonyl)phenyl)-2,6-naphthyridin-3-amine]	–
< 25 nM	25 to 250 nM	–	> 250 nM	–	–	Cc1c(-c2nccc3cnc(Nc4ccc(S(C)(=O)=O)cc4)cc23)ccc2nn(C)cc12 [Ex 166, 5-(2,4-dimethyl-2H-indazol-5-yl)-N-(4-(methylsulfonyl)phenyl)-2,6-naphthyridin-3-amine]	IC50 (CDK6/CCND1; [3]): 25 to 250 nM
–	–	25 to 250 nM	> 250 nM	> 250 nM	> 250 nM	Cc1nc(-c2nccc3cnc(Nc4ccc(S(C)(=O)=O)cc4)cc23)no1 [Ex 167, 5-(5-methyl-1,2,4-oxadiazol-3-yl)-N-(4-(methylsulfonyl)phenyl)-2,6-naphthyridin-3-amine]	–
< 25 nM	25 to 250 nM	–	> 250 nM	–	> 250 nM	CS(=O)(=O)c1ccc(Nc2cc3c(-c4ccc5[nH]ncc5c4Cl)nccc3cn2)cc1 [Ex 183, 5-(4-chloro-1H-indazol-5-yl)-N-(4-(methylsulfonyl)phenyl)-2,6-naphthyridin-3-amine]	–
